According to patent US9212201B2, “Antifungal and antiparasitic polyene macrolides” (priority 2010, dated 2015):
Values after ≈ are worked out from the molar mass of the structure shown. Like-named read-outs stand apart in the source and are kept apart here.

Key:
[1] = system: C. kefyr; assay: In vitro antifungal susceptibility CLSI M27-A2 (MIC, MFC); type: cell-based; conditions: C. kefyr (10)
[2] = system: C. tropicalis; assay: as above; type: cell-based; conditions: C. tropicalis (10)
[3] = system: Coccidioides sp; type: cell-based
[4] = system: C. dubliniensis; assay: In vitro antifungal susceptibility CLSI M27-A2 (MIC); type: cell-based; conditions: C. dubliniensis (5)
Procedure: (§1) In addition, MFC ([…]) was done for each species. The geometric mean (GM) was calculated for each isolate using all three results. All testing was performed in triplicate to verify the reproducibility of the data.
Eighty-three Candida strains were evaluated. This included 12 different Candida species, which are the species that are most commonly involved in the majority of candidal infections in humans. The species include ten isolates of C. albicans, C. glabrata, C. parapsilosis, C. tropicalis, C. krusei, C. lusitaniae, and C. kefyr, along with five isolates of C. dubliniensis, and two isolates each of C. guilliermondii and C. rugosa. In addition, there was also one isolate each of C. sake, C. lipolytica, C. sphaerica and C. norvegica.

[5] = system: C. guilliermondii; assay: In vitro antifungal susceptibility CLSI M27-A2 (MIC, MFC); type: cell-based; conditions: C. guilliermondii (2)
[6] = 28-day toxicology in rats (clinical chemistry, NOAEL)
[7] = system: Histoplasma capsulatum; type: cell-based; conditions: 4 of the H isolates
[8] = system: 14 clinical isolates: Coccidioides, Blastomyces, Histoplasma capsulatum, Paracoccidioides; type: cell-based; conditions: of 14 isolates
[9] = human, in vivo; cited from earlier work
[10] = system: A. flavus; assay: In vitro antifungal susceptibility CLSI M38-A (MIC); type: cell-based; conditions: 5 isolates
Procedure: as §1
(§2) A total of 31 isolates of Aspergillus were evaluated. This included six different species of Aspergillus which included six strains of A. fumigatus, and 5 strains of A. flavus, A. terreus, A. niger and A. glaucus.

[11] = system: A. fumigatus; assay: as above; type: cell-based; conditions: A. fumigates, 6 isolates
Procedure: as §1, §2

[12] = system: A. glaucus; assay: as above; type: cell-based; conditions: 5 isolates
Procedure: as §1, §2

[13] = system: A. niger; assay: as above; type: cell-based; conditions: 5 isolates
Procedure: as §1, §2

[14] = system: A. terreus; assay: as above; type: cell-based; conditions: 5 isolates
Procedure: as §1, §2

[15] = system: A. versicolor; assay: as above; type: cell-based; conditions: 5 isolates
Procedure: as §1, §2

[16] = system: C. krusei; assay: In vitro antifungal susceptibility CLSI M27-A2 (MIC, MFC); type: cell-based; conditions: C. krusei (10)
[17] = system: E. jeanselmei; assay: In vitro antifungal susceptibility CLSI M38-A (MIC); type: cell-based, Exophilia jeanselmei; conditions: 3 isolates
Procedure: as §1
Several of the more common molds were also tested and evaluated including five strains of Alternaria, Cladosporium, Scopulariopsis, Acremonium, and Paecilomyces. Also evaluated were some of the more uncommon fungi such as Exophilia jeanselmei (3), Emmonsia parvum (Chrysporium parvum) (2) and Epioccum spp. (2). Conventional ATCC strains of different Candida and Aspergillus species were used as controls.

[18] = system: Blastomyces dermatitidis; assay: Broth macrodilution MIC/MFC against endemic fungal pathogens; type: cell-based; conditions: for MFC: >96% kill of the inoculum
[19] = system: Naegleria fowleri; assay: Primary amoebic meningoencephalitis in mice; type: in vivo, Balb/c mice; conditions: 9 mg/kg/day for a total of 10 days
[20] = background statement; cited from earlier work
[21] = system: C. rugosa; assay: In vitro antifungal susceptibility CLSI M27-A2 (MIC, MFC); type: cell-based; conditions: C. rugosa (2)
[22] = system: L. donovani intracellular amastigotes
[23] = rat sera, amphotericin B 0.5 mg, intravenously three days a week
[24] = rat sera, amphotericin B 1.0 mg, intravenously three days a week
[25] = rat sera, amphotericin B 1.5 mg, intravenously three days a week
[26] = Blastomyces dermatitidis isolate 1
[27] = Blastomyces dermatitidis isolate 2

## C[C@@H]1[C@H](O)[C@@H](C)/C=C/C=C/C=C/C=C/C=C/C=C/C=C/[C@H](O[C@@H]2O[C@H](C)[C@@H](O)[C@H](N)[C@@H]2O)C[C@@H]2O[C@](O)(C[C@@H](O)C[C@@H](O)[C@H](O)CC[C@@H](O)C[C@@H](O)CC(=O)O[C@H]1C)C[C@H](O)[C@H]2C(=O)O [Amphotericin B, amphotericin B]
[1]
  GM (geometric mean MIC): 1.25 µg/mL
  MFC: 1 µg/mL (≈ 1.08 µM)
  MIC50: 1 µg/mL (≈ 1.08 µM)
  MIC90: 2 µg/mL (≈ 2.16 µM)
  MIC Range: 0.12 to 2.0 µg/mL
[2]
  GM (geometric mean MIC): 0.95 µg/mL
  MFC: 2 µg/mL (≈ 2.16 µM)
  MIC50: 1 µg/mL (≈ 1.08 µM)
  MIC90: 1 µg/mL (≈ 1.08 µM)
  MIC Range: 0.5 to 1.0 µg/mL
[3]; 2 C isolates
  MFC higher than corifungin: ≥ 4 fold
[3]; 3 of the C isolates
  MFC: ≥ 8 µg/mL
  MIC: 4 µg/mL (≈ 4.33 µM)
[3]; Coccidioides sp isolate 1
  MIC: 2 µg/mL (≈ 2.16 µM)
[3]; Coccidioides sp isolate 1, >96% kill of the inoculum
  MFC: 8 µg/mL (≈ 8.66 µM)
[3]; Coccidioides sp isolate 2
  MIC: 4 µg/mL (≈ 4.33 µM)
[3]; Coccidioides sp isolate 2, >96% kill of the inoculum
  MFC: 8 µg/mL (≈ 8.66 µM)
[3]; Coccidioides sp isolate 3
  MIC: 1 µg/mL (≈ 1.08 µM)
[3]; Coccidioides sp isolate 3, >96% kill of the inoculum
  MFC: > 8 µg/mL
[3]; Coccidioides sp isolate 4
  MIC: 4/4 mcg/mL
[3]; Coccidioides sp isolate 4, >96% kill of the inoculum
  MFC: 4/4 mcg/mL
[3]; Coccidioides sp isolate 5
  MIC: 4/4 mcg/mL
[3]; Coccidioides sp isolate 5, >96% kill of the inoculum
  MFC: 4/4 mcg/mL
[4]
  GM (geometric mean MIC): 0.4 µg/mL
  MIC50: 0.5 µg/mL (≈ 0.541 µM)
  MIC90: 1 µg/mL (≈ 1.08 µM)
  MIC Range: 0.125 to 1 µg/mL
[5]
  GM (geometric mean MIC): 0.5 µg/mL
  MFC: 1 µg/mL (≈ 1.08 µM)
  MIC Range: 0.5 µg/mL (≈ 0.541 µM)
[6]; [23]
  ALB (Albumin): 3.2
  ALK (Alkaline Phosphatase): 74
  ALT (Alanine Aminotransferase): 37
  BUN (Blood Urea Nitrogen): 15
  Creat (Creatinine): 0.6
  GLOB (Globulin): 2.6
  Na (Sodium): 140
[6]; [24]
  ALB (Albumin): 3.2
  ALK (Alkaline Phosphatase): 61
  ALT (Alanine Aminotransferase): 37
  BUN (Blood Urea Nitrogen): 16
  Creat (Creatinine): 0.6
  GLOB (Globulin): 2.7
  Na (Sodium): 140
  TP (Total Protein): 6.0
[6]; [25]
  ALB (Albumin): 3.4
  ALK (Alkaline Phosphatase): 69
  ALT (Alanine Aminotransferase): 36
  BUN (Blood Urea Nitrogen): 17
  Creat (Creatinine): 0.6
  GLOB (Globulin): 2.4
  Na (Sodium): 132
[6]; rats, intravenously 1.5 mg/kg three times a week over 28 days
  toxicity: No toxicity was observed
[7]
  MFC: 0.5 µg/mL (≈ 0.541 µM)
  MIC: 0.5 µg/mL (≈ 0.541 µM)
[8]
  cases in which MFCs equaled MICs: 11/14
[9]
  patients with nephrotoxicity: ≤ 80%
[10]
  GM: 4.8 µg/mL
  MIC50: 2 µg/mL (≈ 2.16 µM)
  MIC Range: 2 to 16 µg/mL
[11]
  GM: 1.58 µg/mL
  MIC50: 2 µg/mL (≈ 2.16 µM)
  MIC Range: 0.5 to 2 µg/mL
[12]
  GM: 0.7 µg/mL
  MIC50: 0.5 µg/mL (≈ 0.541 µM)
  MIC Range: 0.25 to 1 µg/mL
[13]
  GM: 0.8 µg/mL
  MIC50: 1 µg/mL (≈ 1.08 µM)
  MIC Range: 0.5 to 1 µg/mL
[14]
  GM: 2.0 µg/mL
  MIC50: 2 µg/mL (≈ 2.16 µM)
  MIC Range: 2 to 4 µg/mL
[15]
  GM: 0.9 µg/mL
  MIC50: 1 µg/mL (≈ 1.08 µM)
  MIC Range: 0.25 to 2 µg/mL
[16]
  GM (geometric mean MIC): 1.29 µg/mL
  MFC: 2 µg/mL (≈ 2.16 µM)
  MIC50: 1 µg/mL (≈ 1.08 µM)
  MIC90: 2 µg/mL (≈ 2.16 µM)
  MIC Range: 0.5 to 2.0 µg/mL
[16]; listed as amphotericin B
  MIC50: 1.0 µg/mL (≈ 1.08 µM)
[17]
  GM: 4.67 µg/mL
  MIC50: 4 µg/mL (≈ 4.33 µM)
  MIC Range: 2 to 8 µg/mL
[18]; [26]
  MIC: 2/2 mcg/mL
  MFC: 2/2 mcg/mL
[18]; [27]
  MIC: 1/1 mcg/mL
  MFC: 1/1 mcg/mL
[19]
  survival: no improvement in survival over the control
[20]
  Water solubility: insoluble in water
[21]
  GM (geometric mean MIC): 0.83 µg/mL
  MFC: 2 µg/mL (≈ 2.16 µM)
  MIC Range: 0.5 to 1.0 µg/mL
[22]
  IC50: 50 nM
